Test results as given in PubChem BioAssay (NCI).
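These data come from cells grown in 96-well plates and exposed to compound for 48 hours at five concentrations. GI50 = concentration required for 50% inhibition of growth. The concentration for full growth arrest is given as TGI.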

Tests used:
Assay in all cases: inhibition of tumour cell growth, NCI panel, 48 h
MDA-MB-231 breast = system: MDA-MB-231 breast
SW-620 colon = system: SW-620 colon
UACC-62 melanoma = system: UACC-62 melanoma
MDA-MB-435 = system: MDA-MB-435
CCRF-CEM leukemia = system: CCRF-CEM leukemia
CAKI-1 renal = system: CAKI-1 renal
A549 NSCLC = system: A549 NSCLC
KM12 colon = system: KM12 colon
UO-31 renal = system: UO-31 renal
HS 578T breast = system: HS 578T breast
IGROV1 ovarian = system: IGROV1 ovarian
MCF7 breast = system: MCF7 breast
RPMI-8226 leukemia = system: RPMI-8226 leukemia
TK-10 renal = system: TK-10 renal
COLO 205 colon = system: COLO 205 colon
HOP-62 NSCLC = system: HOP-62 NSCLC
HCT-116 colon = system: HCT-116 colon
SK-OV-3 ovarian = system: SK-OV-3 ovarian
SR leukemia = system: SR leukemia
A498 renal = system: A498 renal
OVCAR-3 ovarian = system: OVCAR-3 ovarian
SF-539 CNS = system: SF-539 CNS
HOP-92 NSCLC = system: HOP-92 NSCLC
NCI-H460 lung = system: NCI-H460 lung
SF-295 CNS = system: SF-295 CNS
NCI-H226 lung = system: NCI-H226 lung
SN12C renal = system: SN12C renal
MALME-3M melanoma = system: MALME-3M melanoma
SF-268 CNS = system: SF-268 CNS
T-47D breast = system: T-47D breast
HL-60(TB) leukemia = system: HL-60(TB) leukemia
SK-MEL-5 melanoma = system: SK-MEL-5 melanoma
OVCAR-5 ovarian = system: OVCAR-5 ovarian
BT-549 breast = system: BT-549 breast
LOX IMVI melanoma = system: LOX IMVI melanoma
K-562 leukemia = system: K-562 leukemia
M14 melanoma = system: M14 melanoma
HCC-2998 colon = system: HCC-2998 colon
SK-MEL-2 melanoma = system: SK-MEL-2 melanoma
NCI-H522 lung = system: NCI-H522 lung
HCT-15 colon = system: HCT-15 colon
786-0 renal = system: 786-0 renal
NCI-H23 lung = system: NCI-H23 lung
ACHN renal = system: ACHN renal
MOLT-4 leukemia = system: MOLT-4 leukemia
EKVX NSCLC = system: EKVX NSCLC
DU-145 prostate = system: DU-145 prostate
UACC-257 melanoma = system: UACC-257 melanoma
RXF 393 renal = system: RXF 393 renal
PC-3 prostate = system: PC-3 prostate
U251 CNS = system: U251 CNS
OVCAR-8 ovarian = system: OVCAR-8 ovarian
NCI/ADR-RES ovarian = system: NCI/ADR-RES ovarian

CC1=C(C)C(=O)C(C(C)C2=C(C)C(=O)C(C)=C(C)C2=O)=C(C)C1=O
GI50 (MDA-MB-231 breast): 13.8 µM
TGI (MDA-MB-231 breast): 30.4 µM
GI50 (SW-620 colon): 15.7 µM
TGI (SW-620 colon): 29.8 µM
GI50 (UACC-62 melanoma): 19.3 µM
TGI (UACC-62 melanoma): > 100 µM
GI50 (MDA-MB-435): 39.4 µM
TGI (MDA-MB-435): > 100 µM
GI50 (CCRF-CEM leukemia): 20.1 µM
TGI (CCRF-CEM leukemia): 50.7 µM
GI50 (CAKI-1 renal): 28.6 µM
TGI (CAKI-1 renal): > 100 µM
GI50 (A549 NSCLC): 51 µM
TGI (A549 NSCLC): > 100 µM
GI50 (KM12 colon): 40 µM
TGI (KM12 colon): > 100 µM
GI50 (UO-31 renal): 27.6 µM
TGI (UO-31 renal): 85.5 µM
GI50 (HS 578T breast): 29.2 µM
TGI (HS 578T breast): > 100 µM
GI50 (IGROV1 ovarian): 48.9 µM
TGI (IGROV1 ovarian): > 100 µM
GI50 (MCF7 breast): 29 µM
TGI (MCF7 breast): > 100 µM
GI50 (RPMI-8226 leukemia): 7.09 µM
TGI (RPMI-8226 leukemia): 31.6 µM
GI50 (TK-10 renal): 90.6 µM
TGI (TK-10 renal): > 100 µM
GI50 (COLO 205 colon): 32.6 µM
TGI (COLO 205 colon): > 100 µM
GI50 (HOP-62 NSCLC): > 100 µM
TGI (HOP-62 NSCLC): > 100 µM
GI50 (HCT-116 colon): 10.8 µM
TGI (HCT-116 colon): 24.8 µM
GI50 (SK-OV-3 ovarian): > 100 µM
TGI (SK-OV-3 ovarian): > 100 µM
GI50 (SR leukemia): 7.35 µM
TGI (SR leukemia): 31.7 µM
GI50 (A498 renal): 25.2 µM
TGI (A498 renal): > 100 µM
GI50 (OVCAR-3 ovarian): 21 µM
TGI (OVCAR-3 ovarian): 54 µM
GI50 (SF-539 CNS): 23.7 µM
TGI (SF-539 CNS): > 100 µM
GI50 (HOP-92 NSCLC): 13.8 µM
TGI (HOP-92 NSCLC): 39.7 µM
GI50 (NCI-H460 lung): 26.7 µM
TGI (NCI-H460 lung): > 100 µM
GI50 (SF-295 CNS): 15.1 µM
TGI (SF-295 CNS): > 100 µM
GI50 (NCI-H226 lung): 58.3 µM
TGI (NCI-H226 lung): > 100 µM
GI50 (SN12C renal): 56 µM
TGI (SN12C renal): > 100 µM
GI50 (MALME-3M melanoma): 44.1 µM
TGI (MALME-3M melanoma): > 100 µM
GI50 (SF-268 CNS): 18.7 µM
TGI (SF-268 CNS): 49.7 µM
GI50 (T-47D breast): 12.8 µM
TGI (T-47D breast): 26.4 µM
GI50 (HL-60(TB) leukemia): 6.94 µM
TGI (HL-60(TB) leukemia): 24.5 µM
GI50 (SK-MEL-5 melanoma): 12.5 µM
TGI (SK-MEL-5 melanoma): 64.6 µM
GI50 (OVCAR-5 ovarian): 47 µM
TGI (OVCAR-5 ovarian): > 100 µM
GI50 (BT-549 breast): 45.1 µM
TGI (BT-549 breast): > 100 µM
GI50 (LOX IMVI melanoma): 19 µM
TGI (LOX IMVI melanoma): > 100 µM
GI50 (K-562 leukemia): 13.2 µM
TGI (K-562 leukemia): > 100 µM
GI50 (M14 melanoma): 53.7 µM
TGI (M14 melanoma): > 100 µM
GI50 (HCC-2998 colon): 57.1 µM
TGI (HCC-2998 colon): > 100 µM
GI50 (SK-MEL-2 melanoma): 33.8 µM
TGI (SK-MEL-2 melanoma): > 100 µM
GI50 (NCI-H522 lung): 30.5 µM
TGI (NCI-H522 lung): > 100 µM
GI50 (HCT-15 colon): 15.2 µM
TGI (HCT-15 colon): > 100 µM
GI50 (786-0 renal): 50.8 µM
TGI (786-0 renal): > 100 µM
GI50 (NCI-H23 lung): 21.6 µM
TGI (NCI-H23 lung): > 100 µM
GI50 (ACHN renal): 24.5 µM
TGI (ACHN renal): > 100 µM
GI50 (MOLT-4 leukemia): 8.88 µM
TGI (MOLT-4 leukemia): 27.6 µM
GI50 (EKVX NSCLC): 32.6 µM
TGI (EKVX NSCLC): > 100 µM
GI50 (DU-145 prostate): 35.5 µM
TGI (DU-145 prostate): > 100 µM
GI50 (UACC-257 melanoma): 33.5 µM
TGI (UACC-257 melanoma): > 100 µM
GI50 (RXF 393 renal): 31.7 µM
TGI (RXF 393 renal): 82.7 µM
GI50 (PC-3 prostate): 20.9 µM
TGI (PC-3 prostate): > 100 µM
GI50 (U251 CNS): 21.7 µM
TGI (U251 CNS): > 100 µM
GI50 (OVCAR-8 ovarian): 33.3 µM
TGI (OVCAR-8 ovarian): > 100 µM
GI50 (NCI/ADR-RES ovarian): 17.9 µM
TGI (NCI/ADR-RES ovarian): 52 µM
